Measurements: patent US8778975B2, “Helicobacter pylori eradicating agent having inhibitory activity on gastric acid secretion” (Link Geonomics, Inc., priority 2006, dated 2014)
Values after ≈ are worked out from the molar mass of the structure shown. Read-outs that look alike come from different tables or passages of the source. Blank lines part the entries; values can stand above or below the compound they belong to.

Key:
[1] = test system: Helicobacter pylori standard strain ATCC 43504; experiment: Antibacterial potency test (MIC), Columbia agar medium, Pharmacological Test Example 1; type: cell-based
Experimental: A test was conducted to see whether there is a difference in the anti-Helicobacter pylori activity depending on the number of carbon atoms of the linear alkyl group for a substituent at the 4-position of the pyridine ring.
For the bacterium Helicobacter pylori, a standard strain ATCC 43504 was used to perform in vitro tests in Columbia agar medium. Each of the specimens was dissolved in a 1% DMSO solution, and the bacteria were cultured at 37° C. and pH 7.0 for 3 days. On the 4th day, the minimum growth inhibitory concentration (MIC, μg/ml) was determined.

[2] = test system: Helicobacter pylori bacteria (ATCC 43504); experiment: Antiulcer action and bacteria eradicating action in Helicobacter pylori-infected Mongolian gerbils; type: in vivo; conditions: for Number of Bacteria (average) (log CFU): gastric mucosa
Experimental: Mongolian gerbils were experimentally infected with Helicobacter pylori bacteria, and the antiulcer action and the Helicobacter pylori bacteria eradicating action of the compounds of the present invention were tested.
Male Mongolian gerbils (30 to 40 g), five animals in each group, were orally inoculated with Helicobacter pylori bacteria (ATCC 43504) at 1.6×10^7 CFU/0.5 ml/mouse, and bred for one week, and then drug was administered two times a day for two weeks. Thereafter, the […] were bred for three weeks, and then the rats were fasted for 18 hours and subjected to abdominal section, followed by autopsy. The severity of gastric ulcer, the number of Helicobacter pylori bacteria in the gastric mucosa, and the antibody titer were measured.

[3] = Stability test in acidic hydrochloric acid solution (pH 2), residual ratio by HPLC; type: physicochemical; conditions: for Residual ratio at pH 2: pH 2 HCl, 37° C.; for Stability in acid (residual ratio at pH = 2: %): Table 8 summary, time not stated
Experimental: A test for the stability of thioether compounds (hereinafter, referred to SH-form) and sulfoxide compounds (hereinafter, referred to SO-form) at pH 2.0 was carried out. (Method) Each of the specimens produced in Examples 1 to 3 and Reference Examples 6 to 8 (sulfinyl products of Examples 1 to 3) was maintained in a solution adjusted to pH 2 with 0.5 or 1.0 mmol/L HCl (37° C.) for a predetermined time period. Subsequently, the solution was adjusted to pH 8 with triethylamine, and then an HPLC analysis was performed to calculate the residual ratio.

gastric acid secretion = experiment: Gastric acid secretion inhibiting action, pylorus ligation in rats; type: in vivo, SD rats; conditions: 30 mg/kg to the duodenum, 4 hours after pylorus ligation, average
Experimental: The gastric acid secretion inhibiting action of the compounds of the present invention was tested. A group of five animals of male SD rats (about 200 g) were used, and the medicaments were respectively dissolved in 0.5% CMC and were all administered to the duodenum respectively at 30 mg/kg. The rats were fasted overnight from the day before the administration of the test substance to the point of administration, and pylorus ligation was performed.

[4] = test system: Helicobacter pylori standard strains ATCC 43504, ATCC 43629, ATCC 43570 and clinically separated strains; experiment: Anti-Helicobacter pylori activity (MIC), standard and clinically separated strains, Pharmacological Test Example 2; type: cell-based
Experimental: For the bacterium Helicobacter pylori, standard strains ATCC 43504, ATCC 43629 and ATCC 43570 were used to perform in vitro tests in Columbia agar medium. The bacteria were cultured at 37° C. and pH 7.0 for 3 days. On the 4th day, the minimum growth inhibitory concentration (MIC, μg/ml) was determined. Each of the specimens was dissolved in a 1% DMSO solution. Furthermore, amoxicillin and clarithromycin were used as control drugs of antibacterial substance. Further, the compound described in the article of Thomas C. Kuehler (J. Med.

[5] = ATCC43504, 72 h, ATCC 43504, 37° C., pH 7.0, 3 days, read-out: MIC
[6] = ATCC43504, Table 8 summary, strain not stated, read-out: Anti-HP activity (MIC: μg/mL)
[7] = Helicobacter pylori, ATCC43504, Table 8, amount of administration (mg) 30, read-out: HP eradication based on Mongolian gerbil infection model: Eradication rate (%)
[8] = 30 mg/kg, two times a day for two weeks
[9] = Helicobacter pylori, ATCC43504, 336 h, 30 mg/kg, two times a day for two weeks, read-out: Eradication rate (%)
[10] = Clinically separated strain PT1045482
[11] = Clinically separated strain PT1045483
[12] = Clinically separated strain PT1045484

MIC [1, 5]: 3 µg/mL (≈ 10.5 µM)
Structure (SMILES): COc1ccnc(CSc2nc3ccccc3[nH]2)c1C [Reference Example 1, 2-[(4-methoxy-3-methylpyridin-2-yl)-methylthio]-1H-benzimidazole]

MIC [1, 5]: 3 µg/mL (≈ 8.08 µM)
MIC [1, 6]: 3 µg/mL (≈ 8.08 µM)
Residual ratio at pH 2 ([3]; 0 min): 100%
Residual ratio at pH 2 ([3]; 30 min): 0%
Residual ratio at pH 2 ([3]; 2 hours): 0%
Stability in acid (residual ratio at pH = 2: %) [3]: 0%
Structure (SMILES): CCCCCCOc1ccnc(C[S+]([O-])c2nc3ccccc3[nH]2)c1C (racemic) [Reference Example 7, (±)-2-[(4-n-hexyloxy-3-methylpyridin-2-yl)-methylsulfinyl]-1H-benzimidazole]
responders at 30 mg/kg [2, 7]: 0%

MIC [1, 5]: 3 µg/mL (≈ 7.78 µM)
MIC [1, 6]: 3 µg/mL (≈ 7.78 µM)
Residual ratio at pH 2 ([3]; 0 min): 100%
Residual ratio at pH 2 ([3]; 30 min): 0%
Residual ratio at pH 2 ([3]; 2 hours): 0%
Stability in acid (residual ratio at pH = 2: %) [3]: 0%
Structure (SMILES): CCCCCCCOc1ccnc(C[S+]([O-])c2nc3ccccc3[nH]2)c1C (racemic) [Reference Example 8, (±)-2-[(4-n-heptyloxy-3-methylpyridin-2-yl)-methylsulfinyl]-1H-benzimidazole]
responders at 30 mg/kg [2, 7]: 0%

Structure (SMILES): CN/C(=N/CCSCc1nc[nH]c1C)NC#N [Cimetidine]
Gastric acid secretion inhibiting action: Amount of gastric acid (gastric acid secretion): 54%
Gastric acid secretion inhibiting action: Amount of gastric acid secretion (gastric acid secretion): 74%
Gastric acid secretion inhibiting action: Total acidity (gastric acid secretion): 41%

MIC [1, 5]: 3 µg/mL (≈ 7.29 µM)
Structure (SMILES): CCCCCCCCCCOc1ccnc(CSc2nc3ccccc3[nH]2)c1C [Reference Example 5, 2-[(4-n-decyloxy-3-methylpyridin-2-yl)-methylthio]-1H-benzimidazole]

MIC [1, 5]: 1 µg/mL (≈ 3.19 µM)
Structure (SMILES): CCCOc1ccnc(CSc2nc3ccccc3[nH]2)c1C [Reference Example 3, 2-[(4-n-propoxy-3-methylpyridin-2-yl)-methylthio]-1H-benzimidazole]

Structure (SMILES): CC(C)COc1ccnc(CSc2nc3ccccc3[nH]2)c1 [Comparative Example 2, 2-[(4-isobutoxy-pyridin-2-yl)methylthio]-1H-benzimidazole]
Antibody titer (average) ([2]; 30 mg/kg): 0.55
Number of Bacteria (average) (log CFU) ([2]; 30 mg/kg): 5.9 log CFU
Number of Ulcers discovered [2, 8]: 5/5
responders at 30 mg/kg [2, 9]: 0%
MIC [4, 10]: 10 µg/mL (≈ 31.9 µM)
MIC [4, 11]: 10 µg/mL (≈ 31.9 µM)
MIC [4, 12]: 10 µg/mL (≈ 31.9 µM)
MIC ([4]; Standard strain ATCC 43504): 10 µg/mL (≈ 31.9 µM)
MIC ([4]; Standard strain ATCC 43570): 5 µg/mL (≈ 16 µM)
MIC ([4]; Standard strain ATCC 43629): 10 µg/mL (≈ 31.9 µM)

Structure (SMILES): Cc1c(OCC(C)C)ccnc1CSc1nc2ccccc2[nH]1 [Comparative Example 1, 2-[(4-isobutoxy-3-methylpyridin-2-yl)methylthio]-1H-benzimidazole]
Antibody titer (average) ([2]; 30 mg/kg): 0.49
Number of Bacteria (average) (log CFU) ([2]; 30 mg/kg): 6.3 log CFU
Number of Ulcers discovered [2, 8]: 5/5
responders at 30 mg/kg [2, 9]: 0%
MIC [4, 10]: 3 µg/mL (≈ 9.16 µM)
MIC [4, 11]: 3 µg/mL (≈ 9.16 µM)
MIC [4, 12]: 1 µg/mL (≈ 3.05 µM)
MIC ([4]; Standard strain ATCC 43504): 3 µg/mL (≈ 9.16 µM)
MIC ([4]; Standard strain ATCC 43570): 1 µg/mL (≈ 3.05 µM)
MIC ([4]; Standard strain ATCC 43629): 1 µg/mL (≈ 3.05 µM)

MIC [1, 6]: 8 µg/mL (≈ 22.3 µM)
Stability in acid (residual ratio at pH = 2: %) [3]: 0%
Structure (SMILES): COCCCOc1ccnc(C[S+]([O-])c2nc3ccccc3[nH]2)c1C (stereo not shown) [RAZ, Rabeprazole]
responders at 30 mg/kg [2, 7]: 0%

Structure (SMILES): COc1ccc2[nH]c([S+]([O-])Cc3ncc(C)c(OC)c3C)nc2c1 (stereo not shown) [OMZ, Omeprazole]
MIC [1, 6]: 128 µg/mL (≈ 371 µM)
Antibody titer (average) ([2]; 10 mg/kg): 0.52
Number of Bacteria (average) (log CFU) ([2]; 10 mg/kg): 6.0 log CFU
Number of Ulcers discovered ([2]; 10 mg/kg, two times a day for two weeks): 5/5
responders at 10 mg/kg ([2]; Helicobacter pylori, ATCC43504, 336 h, 10 mg/kg, two times a day for two weeks, read-out: Eradication rate (%)): 0%
responders at 30 mg/kg [2, 7]: 0%
Stability in acid (residual ratio at pH = 2: %) [3]: 0%

MIC [1, 5]: 0.3 µg/mL (≈ 0.782 µM)
Structure (SMILES): CCCCCCCCOc1ccnc(CSc2nc3ccccc3[nH]2)c1C [Example 5, 2-[(4-n-octyloxy-3-methylpyridin-2-yl)-methylthio]-1H-benzimidazole]

MIC [1, 5]: 3 µg/mL (≈ 8.39 µM)
MIC [1, 6]: 3 µg/mL (≈ 8.39 µM)
Residual ratio at pH 2 ([3]; 0 min): 100%
Residual ratio at pH 2 ([3]; 30 min): 0%
Residual ratio at pH 2 ([3]; 2 hours): 0%
Stability in acid (residual ratio at pH = 2: %) [3]: 0%
Structure (SMILES): CCCCCOc1ccnc(C[S+]([O-])c2nc3ccccc3[nH]2)c1C (racemic) [Reference Example 6, (±)-2-[(4-n-pentyloxy-3-methylpyridin-2-yl)-methylsulfinyl]-1H-benzimidazole]
responders at 30 mg/kg [2, 7]: 0%

MIC [1, 5]: 1 µg/mL (≈ 3.34 µM)
Structure (SMILES): CCOc1ccnc(CSc2nc3ccccc3[nH]2)c1C [Reference Example 2, 2-[(4-ethoxy-3-methylpyridin-2-yl)-methylthio]-1H-benzimidazole]

MIC [1, 5]: 1 µg/mL (≈ 2.52 µM)
Structure (SMILES): CCCCCCCCCOc1ccnc(CSc2nc3ccccc3[nH]2)c1C [Reference Example 4, 2-[(4-n-nonyloxy-3-methylpyridin-2-yl)-methylthio]-1H-benzimidazole]

MIC [1, 6]: 16 µg/mL (≈ 43.3 µM)
Residual ratio at pH 2 ([3]; 0 min): 100%
Residual ratio at pH 2 ([3]; 30 min): 0%
Residual ratio at pH 2 ([3]; 2 hours): 0%
Stability in acid (residual ratio at pH = 2: %) [3]: 0%
Structure (SMILES): Cc1c(OCC(F)(F)F)ccnc1C[S+]([O-])c1nc2ccccc2[nH]1 (stereo not shown) [LAZ, Lansoprazole]
responders at 30 mg/kg [2, 7]: 0%

Structure (SMILES): CCCCOc1ccnc(CSc2nc3ccccc3[nH]2)c1C [Example 4, 2-[(4-n-butoxy-3-methylpyridin-2-yl)-methylthio]-1H-benzimidazole]
MIC [1, 5]: 0.3 µg/mL (≈ 0.916 µM)
